Assay results published in patent publication US20080221134A1, “8-ALKYNYLXANTHINES AND DERIVATIVES” (priority 2006, published 2008).
“Also recorded” adds a separate entry of the source.

Columns and labels:
[1] = test system: CGS-21680 induced catalepsy; assay: Acute CGS-21680 induced catalepsy test; format: in vivo, rat; settings: for effect on catalepsy time in acute CGS-21680 induced catalepsy model: i.p. in DMSO, 0.1-10 mg/kg
Experimental: (§1) Animals were administered with Reserpine or CGS-21680 according to methods known to the skilled person in the art. These models and procedures are e.g. described by Ferré S. et al., Neurosci. Let., 1991, 130, 162; Ferré S. et al., Neuroscience, 1992, 51, 501; Kafka S. H. et al., Eur. J. Pharmacol., 1996, 295, 147; Rimondini R. et al., Neuropsychopharmacology, 1997, 17, 82 and are herein incorporated by reference. In the acute CGS-21680 induced catalepsy model (CGS model) the test compounds (TC, compounds according to the present invention) and CGS-21680 (i.p. 2 mg/kg) were administered 60 minutes before the start of the catalepsy bar measurement and behavioural testing described below (see also FIG. 1). In the acute Reserpine induced catalepsy model (RES model Resperine (subcutaneously, 3 mg/kg) was injected 24 h prior to the test compound application. Catalepsy bar measurement took place 60 minutes after test compound application (see FIG. 1). Test compounds were administered i.p. in DMSO in following doses (mg/kg): 0.1, 0.3, 1, 3, 10.
(§2) Dimethylsulfoxide (DMSO) was used as vehicle for the test compounds and Reserpine. Reserpine was dissolved in DMSO in a concentration of 3 mg/ml. A 10% (w/v) Cyclodextrin solution was used as vehicle for CGS-21680. CGS 21680 was dissolved in 10% (w/v) Cyclodextrine in a concentration of 2 mg/ml.
Caffeine was used as a reference compound in the CGS-21680 induced catalepsy model. A caffeine solution was prepared with water for injection purposes to a concentration of 30 mg/ml. The solution was administered intraperitoneally in a volume of 1 ml/kg (30 mg/kg) 30 minutes before the beginning of testing and after CGS-21680 pre-treatment (1 hour prior to testing).
The catalepsy bar after CGS-21680 administration was measured (CAT) as follows: The rat was placed with its forepaws on a log of wood. […] If the animal descended faster than 1 second, the trial was regarded as invalid. If more than 20 trials were rated as invalid, the values of all uncompleted trials were noted as 0. The animal was tested until five trials had been completed and the time for each trial was noted. Only the values of the last three trials were used for the analysis. The following parameters were calculated: maximum time to descend (s) and median time to descend (s).
Behavioural observation (BO) included the measurement of the body tone, inclined plane and grip strength.
The rat is taken in the hand of the observer and the animal's body tone is rated as normal, soft or hard. The rating is performed immediately after taking the animal from its home cage before performance of catalepsy testing. The following parameters were calculated: mean occurrence of hard body tone and mean occurrence of soft body tone.
The rat is horizontally placed to an inclined plane for a maximum time of 30 seconds. Time to reach bottom or top is measured. […] The test is performed after catalepsy testing. Time to leave the inclined plane(s) was measured.
The rat is put on a grip and the observer pulls the animal back on his tail. The strength (fore paws and hind paws) by which it holds on the grid is scored as grasping and pulling, grasping without pulling or no grasping. The test is performed after the inclined plane test. The following parameters were calculated: mean score of fore paw grip strength and mean score of hind paw grip strength.
(§3) All statistical tests were performed two tailed with a value of p<0.05 considered as significant.
(§4) To assess the effects of CGS-21680 and Reserpine pre-treatment compared to vehicle treated controls statistical comparisons between the test groups were performed using a U test statistic.
To assess the effects of test compounds on CGS-21680 and Reserpine pre-treated animals correlation analyses including animals from test groups and the respective test compound-treated groups were performed. […]

[2] = test system: Reserpine induced catalepsy; assay: Acute Reserpine induced catalepsy test; format: in vivo, rat; settings: for effect on catalepsy time in acute Reserpine induced catalepsy model: i.p. in DMSO, 0.1-10 mg/kg; for maximum catalepsy values after Reserpine treatment / median catalepsy values after Reserpine treatment: vs only Reserpine-treated animals
Experimental: as §1, §2
Apomorphine was used as a reference compound in the Reserpine induced catalepsy model. Apomorphine injection solution was diluted with purified water to a concentration of 0.3 mg/ml. The solution was administered subcutaneously (s.c.) in a volume of 1 ml/kg (0.3 mg/kg) 20 minutes before the begin of testing after Reserpine pre-treatment (25 hours prior to testing).
The catalepsy bar after Reserpine administration was measured (CAT) as follows: The rat was placed with its forepaws on a log of wood. […] The animal was tested for three trials and the time for each trial was noted. The following parameters were calculated: maximum time to descend (s) and median time to descend (s). […]
as §3, §4
To assess the effects of test compounds on CGS-21680 and Reserpine pre-treated animals correlation analyses including animals from test groups and the respective test compound-treated groups were performed.
Additionally, parametric and non-parametric comparisons for the median catalepsy measure were performed to assess the reliability of the method. In case of parametric testing a GLM analyses was performed including animals from a control group (only vehicle treated animals) and the respective test compound-treated groups with dose as a categorical factor. In case of a significant result, a Dunnett's post hoc test was performed between the according test compound groups and a control group as reference group. In case of non-parametric testing a Kruskal-Wallis H-test was performed including animals from a control group and the respective test compound groups. In case of a significant result single U-test comparisons were performed between a control group and the groups treated with different doses of the test compound.

[3] = vs only CGS-21680-treated animals

Compound | effect on catalepsy time in acute CGS-21680 induced catalepsy model [1] | grip strength after CGS-21680 treatment [1, 3] | hard body tone after CGS-21680 treatment [1, 3] | maximum catalepsy values after CGS-21680 treatment [1, 3] | median catalepsy values after CGS-21680 treatment [1, 3] | soft body tone after CGS-21680 treatment [1, 3] | effect on catalepsy time in acute Reserpine induced catalepsy model [2] | maximum catalepsy values after Reserpine treatment [2] | median catalepsy values after Reserpine treatment [2] | any other parameter measured after CGS-21680 treatment ([1]; parameters other than body tone)
C#CCn1c(=O)c2c(nc(C#Cc3ccc(OC)c(OC)c3)n2C)n(CC)c1=O [test compound 1, 3-ethyl-8-(3,4-dimethoxyphenylethynyl)-7-methyl-1-prop-2-ynyl-3,7-dihydropurine-2,6-dione] | significantly reduced catalepsy time; also recorded: significant reduction of catalepsy time; also recorded: significant effects | higher amount of grip strength | significantly increased | decreased | decreased | decreased | significantly reduced catalepsy time; also recorded: significant reduction of catalepsy time | only weakly reduced | significantly reduced | –
C#CCn1c(=O)c2c(nc(C#Cc3ccc(OC)c(OC)c3)n2C)n(CCCO)c1=O [test compound 2, 3-(3-hydroxypropyl)-8-(3,4-dimethoxyphenylethynyl)-7-methyl-1-prop-2-ynyl-3,7-dihydropurine-2,6-dione] | reduced catalepsy time; also recorded: reduction of catalepsy time; also recorded: significant effects | – | significantly increased | – | – | decreased | reduced catalepsy time; also recorded: significant reduction of catalepsy time | significantly decreased | significantly decreased | no significant effects
